Test results published in patent US8389573B2, “Glycyrrhetinic acid derivatives” (Wellington Laboratories Inc., priority 2006, dated 2013).

Target: T1, PPARγ-coactivator interactions (Homo sapiens, UniProt P37231)
T1 construct: expressed in transfected cells; host or cells: SW480 cells, transient transfection (LipofectAMINE)
T1 sequence (P37231 238-503 limits assumed): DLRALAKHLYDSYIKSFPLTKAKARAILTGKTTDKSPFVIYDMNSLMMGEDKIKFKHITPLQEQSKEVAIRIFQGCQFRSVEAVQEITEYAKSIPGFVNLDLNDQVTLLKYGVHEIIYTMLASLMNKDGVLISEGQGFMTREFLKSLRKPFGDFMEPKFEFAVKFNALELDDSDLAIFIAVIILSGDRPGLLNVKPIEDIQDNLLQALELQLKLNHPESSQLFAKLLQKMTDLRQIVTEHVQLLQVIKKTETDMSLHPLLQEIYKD
Experiment: Mammalian two-hybrid assay (VP-PPARγ, GAL4-coactivator) in SW480 cells
Type: cell-based
Description: SW480 and HT29 cell lines were plated in 12-well plates at 1×10^5 cells/well in DMEM/F-12 media supplemented with 2.5% charcoal-stripped fetal bovine serum. After growth for 16 h, various amounts of DNA, i.e. Gal4Luc (0.4 μg), β-gal (0.04 μg), VP-PPARγ (0.04 μg), pMSRC1 (0.04 μg), pMSRC2 (0.04 μg), pMSRC3 (0.04 μg), pMPGC-1 (0.04 μg), pMDRIP205 (0.04 μg), and pMCARM-1 (0.04 μg) were transfected by LipofectAMINE (Invitrogen) according to the manufacturer's protocol. After 5 h of transfection, the transfection mix was replaced with complete media containing either vehicle (DMSO) or the indicated ligand for 20-22 h. Cells were then lysed with […] of 1× reporter lysis buffer, and 30 μl of cell extract was used for luciferase and β-galactosidase assays. Lumicount was used to quantitate luciferase and β-galactosidase activities, and the luciferase activities were normalized to β-galactosidase activity.

PPARγ interaction with coactivators PGC-1 and SRC-1: induced transactivation
ligand-induced interactions of SRC-2, SRC-3, CARM1, TRAP220 and SMRT with PPARγ: not observed
Compound: COC(=O)[C@@]1(C)CC[C@]2(C)CC[C@]3(C)C(=CC(=O)[C@@H]4[C@@]5(C)C=C(C#N)C(=O)C(C)(C)[C@@H]5CC[C@]43C)[C@@H]2C1 [β-CDODA-Me, Methyl 2-cyano-3,11-dioxo-18β-oleana-1,12-dien-30-oate]
